One may read the inhibition as the drop in the measured response relative to a control, in per cent.

Read-outs that look alike come from different tables or passages of the source. Where only a bound is given, the exact number is not on record here.

For one experiment, the target named is T1, BRD4(1) (Homo sapiens, UniProt O60885).
T1 construct: the phylogenetically diverse BAZ2A, BRD4(1), and BRD9 bromodomains; His tag (pNIC28-Bsa4 vector; purified on HisTrap) (N); made in house; host or cells: E. coli BL21 (DE3) Gold
Kind of experiment: AlphaScreen assay inhibiting the interaction of BRD4(1) with biotinylated H4(KAc)4. The conditions noted are these: for Percentage inhibition of bromodomain-KAc recognition, BRD4(1), H4(KAc)4 / inhibition at 0.004 µM: AlphaScreen, average of triplicate, BRD4(1) 10 nM, biotin-H4(KAc)4 4 nM. It is filed as binding. From the text:
(§1) Supporting Table S1: Percentage inhibition of bromodomain-KAc recognition by isoxazole-containing amino acids.
(§2) Inhibitory values of unprotected amino acids given as average percentage inhibition (buffer […]
(§3) measurements in triplicate (AlphaScreen). n.d. value not determined. Inhibition values highlighted as a heatmap from green (low inhibition) to red (high inhibition). […]
(§4) Protein expression and purification: bromodomain-containing constructs in pNIC28-Bsa4 vector backbones were transformed into E. coli BL21 (DE3) Gold cells. Flasks containing […]
(§5) starter culture. Flasks (2000 mL PYREX® narrow-mouth graduated Erlenmeyer flasks or plastic baffled flasks) were incubated at 37 °C and 180 rpm in an Innova® 44 shaker (New Brunswick Scientific). When OD600 reached 0.8-1.0, the temperature was lowered to 18 °C and IPTG was added to a final concentration of 0.25 mM to induce protein expression.
Cultures were incubated at 18 °C overnight, after which time cultures were harvested by centrifugation in a JA10 rotor in an Avanti J25 centrifuge (Beckman CoulterTM) at 8000 rpm for 15 min at 4 °C. The resulting pellet was weighed and stored in a sealable plastic bag at - 80 °C. Proteins were purified with a 3 mL HisTrapTM chromatography column (GE Healthcare), and Superdex 75 XK 16/600 gel filtration column (GE Healthcare) using standard
(In general: In Alpha technology, singlet oxygen from a donor bead excites a nearby acceptor bead.)

Experiment [1] concerns the target T2, BAZ2A (Homo sapiens, UniProt Q9UIF9).
T2 construct: the phylogenetically diverse BAZ2A, BRD4(1), and BRD9 bromodomains; Structural Genomics Consortium (Oxford)
T2 sequence (Q9UIF9 1793-1897 limits assumed): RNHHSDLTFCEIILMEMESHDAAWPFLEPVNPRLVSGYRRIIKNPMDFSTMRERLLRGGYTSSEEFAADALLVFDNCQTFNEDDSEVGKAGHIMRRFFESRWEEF
Kind of experiment: AlphaScreen single shot screening, BAZ2A with biotin-H3K14Ac peptide. Format: binding. The conditions noted are these: amino acid 50 μM as headed in Table 1 (supplement: 25 µM), average of triplicate, BAZ2A 25 nM, biotin-H3 5-24 KAc14 50 nM, read-out: Percentage inhibition of bromodomain-KAc recognition, BAZ2A, H3K14Ac.

Experiment [2] concerns the target T3, BRD9 (Homo sapiens, UniProt Q9H8M2).
T3 construct: the phylogenetically diverse BAZ2A, BRD4(1), and BRD9 bromodomains; Structural Genomics Consortium (Oxford)
T3 sequence (Q9H8M2 136-240 limits assumed): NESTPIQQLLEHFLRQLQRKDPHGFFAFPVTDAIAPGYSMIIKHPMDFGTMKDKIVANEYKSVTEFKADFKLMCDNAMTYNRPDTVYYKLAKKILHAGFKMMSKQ
Kind of experiment: AlphaScreen single shot screening, BRD9 with biotin-H2A(KAc)3 peptide. Format: binding. The conditions noted are these: average of triplicate, BRD9 40 nM, biotin-H2A 1-21 KAc9KAc13KAc15 25 nM, read-out: Percentage inhibition of bromodomain-KAc recognition, BRD9, H2(KAc)3; for inhibition at 250 µM: amino acid 250 μM, <0.5% DMSO; for inhibition at 25 µM: amino acid 50 μM as headed in Table 1 (supplement: 25 µM).
Text: as §1, §2, §3, §4, §5
(§6) Cultures were incubated at 18 °C overnight, after which time cultures were harvested by centrifugation in a JA10 rotor in an Avanti J25 centrifuge (Beckman CoulterTM) at 8000 rpm for 15 min at 4 °C. The resulting pellet was weighed and stored in a sealable plastic bag at - 80 °C. Proteins were purified with a 3 mL HisTrapTM chromatography column (GE […]
(§7) AlphaScreen assay: AlphaScreen buffer (25 mM HEPES, 100 mM NaCl, 0.05% w/v CHAPS, 0.1% w/v BSA; pH 7.6) was prepared fresh each day, filter sterilization through a 0.22 µm filter, and stored at 4 °C, with equilibration to room temperature before use. Single shot screening against BAZ2A and BRD9A was carried out by the Structural Genomics Consortium (Oxford) as described previously.[12] Biotinylated peptides employed and final assay […]
(§8) biotin-H35-24KAc14 50 nM. Amino acids were tested at 25 µM and 250 µM with <0.5% DMSO.

Experiment [3] deals with T3, BRD9. The description is as above. It is filed as binding. The conditions noted are these: amino acid 50 μM as headed in Table 1 (supplement: 25 µM), average of triplicate, BRD9 40 nM, biotin-H2A 1-21 KAc9KAc13KAc15 25 nM, read-out: Percentage inhibition of bromodomain-KAc recognition, BRD9, H2(KAc)3.
The target of experiment [4] is T2, BAZ2A. As to the kind of experiment: AlphaScreen single shot screening, BAZ2A with biotin-H3K14Ac peptide. Format: binding. The conditions noted are these: average of triplicate, BAZ2A 25 nM, biotin-H3 5-24 KAc14 50 nM, read-out: Percentage inhibition of bromodomain-KAc recognition, BAZ2A, H3K14Ac; for inhibition at 250 µM: amino acid 250 μM, <0.5% DMSO.
Text: as §1, §2, §3, §4, §5, §6, §7, §8

In a further experiment the test system is bromodomain of BRDT. The conditions noted are these: KAc mimics containing MTCTK; cited from earlier work. The text has this:
Lysine acetylation is a prevalent post‐translational modification (PTM) which plays a fundamental role in regulating protein function.1, 2 Although acetylated lysine (KAc) residues are found throughout the cellular environment,3, 4, 5 it is the role of this PTM in chromatin function which has garnered most recent interest.6 KAc is viewed as one of the “marks” that comprises the epigenetic code,7, 8 and enzymes that write (histone acetyl transferases) and erase (histone deacetylases) this modification are well characterized.9 Neutralization of lysine's positive charge by acetylation weakens the ...

[5] abbreviates: amino acid 250 μM, buffer blank 0%, 25% DMSO 100% inhibition.
The mark [6] stands for this setting: read-out: Percentage inhibition of bromodomain-KAc recognition, BRD4(1), H4(KAc)4, amino acid 50 μM.
[7] abbreviates: read-out: Percentage inhibition of bromodomain-KAc recognition, BRD4(1), H4(KAc)4, amino acid 250 μM, buffer blank 0%, 25% DMSO 100% inhibition.

Consider `CC(=O)NCCCC[C@H](N)C(=O)O` [KAc, reference compound], for which, on BRD4(1) (amino acid 50 μM), the “Percentage inhibition of bromodomain-KAc recognition, BRD4(1), H4(KAc)4” value (from here on “Percentage inhibition”) is given as 4.6%.
Turning to `Cc1noc(C)c1-c1cc(O)cc(C(O)c2ccccc2)c1` (stereo not drawn) [compound 2, reference compound], the “inhibition by positive control” value against BRD4(1) (included on each plate of the amino acid screen as a positive control, in every case, concentration not given) was 100%.
As to `Cc1cc(CCC[C@H](N)C(=O)O)on1` [compound 3, (S)-2-Amino-5-(3-methylisoxazol-5-yl)pentanoic acid], the “Percentage inhibition” value at BRD4(1) (amino acid 50 μM) amounted to 2.3%; on BRD4(1) (setting [5]), 16.4%.
Regarding `Cc1cc(COC[C@H](N)C(=O)O)on1` [compound 4], the figures for the inhibition at 0.004 µM at BRD4(1) (setting [6]) and on BRD4(1) (setting [7]) were 0.6% and 10.3%, respectively.
`Cc1cc(C(=O)NC[C@H](N)C(=O)O)on1` [compound 5, (S)-2-Amino-3-(3-methylisoxazole-5-carboxamido)propanoic acid]: the inhibition at 50 µM on BAZ2A [1] was 58.1%; on BRD9 [3], 28.6%. The results for the inhibition at 250 µM at BRD9 [2] and at BAZ2A [4] were 73.6% and 98.7%, respectively. The “Percentage inhibition” value was found to be 2.5% on BRD4(1) (amino acid 50 μM) and 31.2% at BRD4(1) (setting [5]).
`CSC(=O)NCCSC[C@H](N)C(=O)O` [compound 7, methylthiocarbonylthialysine]: in the experiment with bromodomain of BRDT, the “interaction with the bromodomain of BRDT compared to KAc” value is on record as “two‐ to fourfold less efficiently”.
Regarding `Cc1noc(C)c1-c1cccc(C[C@H](N)C(=O)O)c1` [compound 8], on BRD9 [2], the inhibition at 25 µM is -7.7% and the inhibition at 250 µM came out at 0.5%. Further, on BAZ2A [4], the inhibition at 250 µM is 45.3% and the inhibition is 5.8%. Besides, the “Percentage inhibition” value at BRD4(1) (setting [5]) was found to be 76.3%. Further, at BRD4(1) (setting [6]), the inhibition at 0.004 µM was 18.3%. In addition, the inhibition at 0.004 µM on BRD4(1) (setting [7]) is over 70%.
`Cc1noc(C)c1-c1ccc(C[C@H](N)C(=O)O)cc1` [compound 9]: on BRD9 [2], the inhibition at 25 µM was -1.7% and the inhibition at 250 µM was determined as 66.5%. On BAZ2A [4], the inhibition at 250 µM was 28.1% and the inhibition came to 2.6%. Moreover, the inhibition at 0.004 µM on BRD4(1) (setting [6]) is 22.7%. The inhibition at 0.004 µM at BRD4(1) (setting [7]) came out at 45.8%.
Turning to `Cc1noc(C)c1NC(=O)CC[C@H](N)C(=O)O` [compound 10, N5-(3,5-Dimethylisoxazol-4-yl)-L-glutamine], on BRD9 [2], the inhibition at 25 µM was -4.8% and the inhibition at 250 µM is -3.1%. At BAZ2A [4], the inhibition at 250 µM turned out to be 25.1% and the inhibition was 1.4%. Further, on BRD4(1) (setting [6]), the inhibition at 0.004 µM was determined as 4.1%. Further, on BRD4(1) (setting [7]), the inhibition at 0.004 µM amounted to 7.5%.
With `Cc1cc(CNC(=O)C[C@H](N)C(=O)O)on1` [compound 11], at BRD9 [2], the inhibition at 25 µM is -8.1% and the inhibition at 250 µM was -0.1%. For the same compound, at BAZ2A [4], the inhibition at 250 µM stood at 53.8% and the inhibition worked out at 1.9%. Moreover, the inhibition at 0.004 µM at BRD4(1) (setting [6]) was determined as 4.7%. Moreover, at BRD4(1) (setting [7]), the inhibition at 0.004 µM came to 18.5%.
For the compound `Cc1noc(C)c1NC(=O)C[C@H](N)C(=O)O` [compound 12], at BRD9 [2], the inhibition at 25 µM is -2.1% and the inhibition at 250 µM came out at 12.6%. Moreover, on BAZ2A [4], the inhibition at 250 µM came to 66.9% and the inhibition is 10.5%. Moreover, on BRD4(1) (setting [6]), the inhibition at 0.004 µM amounted to 1.3%. For the same compound, the inhibition at 0.004 µM on BRD4(1) (setting [7]) came to 23.5%.
Consider `Cc1cc(NC(=O)C[C@H](N)C(=O)O)no1` [compound 13], for which the inhibition at 25 µM at BRD9 [2] is -1%. Moreover, the values for the inhibition at 250 µM on BRD9 [2] and at BAZ2A [4] were 47.9% and 96.1%, respectively. For the same compound, the inhibition at BAZ2A [4] turned out to be 12.6%. Further, the inhibition at 0.004 µM was found to be 0.9% at BRD4(1) (setting [6]) and 26.3% on BRD4(1) (setting [7]).
Regarding `Cc1cc(NC(=O)C[C@H](N)C(=O)O)on1` [compound 14], on BRD9 [2], the inhibition at 25 µM was found to be 1.4% and the inhibition at 250 µM stood at 14.6%. For the same compound, at BAZ2A [4], the inhibition at 250 µM is 84.3% and the inhibition amounted to 14.5%.

The record behind these values is article PMC5089653, “Isoxazole‐Derived Amino Acids are Bromodomain‐Binding Acetyl‐Lysine Mimics: Incorporation into Histone H4 Peptides and Histone H3” (Angewandte Chemie (International Ed. in English), 2016).
